Consider eleven compounds from PMC4517520 (Drug Design, Development and Therapy, 2015).

One assay has as its system EGFR. Conditions: read-out: Potency [IC50], cited from earlier work.
The next assay has as its system HER2. Conditions: read-out: Potency [IC50]; PDB 3RCD; reference or ChEMBL geometric mean; cited from earlier work.
Assay [1] has as its target human EGFR cytoplasmic domain, dual T790M/L858R mutations (Homo sapiens, UniProt P00533, L858R/T790M). The format is biochemical. Conditions: in vitro.
In another assay the test system is A431 (wild-type) cells. As to the kind of experiment: Cell proliferation assay. The format is cell-based. Particulars: Homo sapiens, A-431, 24 h, read-out: Cellular IC50 A431 (wild-type).
For assay [2], the system named is H1975 (T790M/L858R) cells. As to the kind of experiment: Cell proliferation assay. The format is cell-based. Particulars: Homo sapiens, NCI-H1975, 24 h, read-out: Cellular IC50 H1975 (T790M/L858R).
Another assay concerns MCF-7 cells. As to the kind of experiment: Cell proliferation assay. The format is cell-based. Conditions: Homo sapiens, MCF7, 24 h, read-out: Cellular IC50 MCF-7.
The subject of the next assay is HER4. Conditions: read-out: Potency [IC50]; PDB 3BBT; reference or ChEMBL geometric mean; cited from earlier work.

SMILES strings stand for the structures. Where two headings read alike, the source gives them in different places.

human EGFR cytoplasmic domain, dual T790M/L858R mutations, sequence (P00533 669-1210 T790M/L858R): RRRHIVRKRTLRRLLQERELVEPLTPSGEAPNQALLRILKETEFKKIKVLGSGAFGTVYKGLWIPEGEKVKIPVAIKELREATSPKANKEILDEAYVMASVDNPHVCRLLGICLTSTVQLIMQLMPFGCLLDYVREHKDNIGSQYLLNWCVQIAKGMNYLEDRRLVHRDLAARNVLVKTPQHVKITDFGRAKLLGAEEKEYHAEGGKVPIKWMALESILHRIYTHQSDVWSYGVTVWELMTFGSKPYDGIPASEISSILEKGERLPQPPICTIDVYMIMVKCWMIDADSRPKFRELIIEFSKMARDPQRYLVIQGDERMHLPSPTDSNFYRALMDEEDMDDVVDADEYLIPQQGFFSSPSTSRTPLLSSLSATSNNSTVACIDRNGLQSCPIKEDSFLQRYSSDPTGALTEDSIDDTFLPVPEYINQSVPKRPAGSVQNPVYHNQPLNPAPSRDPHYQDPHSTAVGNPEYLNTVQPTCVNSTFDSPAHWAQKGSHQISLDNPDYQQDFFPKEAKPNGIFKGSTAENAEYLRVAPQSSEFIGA

As for `CN(C)C/C=C/C(=O)Nc1cc2c(Nc3ccc(F)c(Cl)c3)ncnc2cc1O[C@H]1CCOC1` [0WM], in the assay with EGFR (PDB 4G5J, reference or ChEMBL geometric mean), the IC50 was 0.5 nM. As to `COc1cc2ncnc(Nc3ccc(F)c(Cl)c3)c2cc1NC(=O)/C=C/CN1CCCCC1` [1C9], in the assay on EGFR (PDB 4I23, reference or ChEMBL geometric mean), the IC50 is 8.12 nM. As to `CC(C)(O)CC(=O)NCCn1ccc2ncnc(Nc3ccc(Oc4cccc(C(F)(F)F)c4)c(Cl)c3)c21` [03P], the IC50 was […] in the assay with EGFR (PDB 3POZ, reference or ChEMBL geometric mean) and 17 nM in the assay on HER2. On to `CC(C)(O)CC(=O)NCCc1ccc2ncnc(Nc3ccc(Oc4cccc(C(F)(F)F)c4)c(Cl)c3)c2c1` [A-10, N-(2-(4-((3-Chloro-4-(3-(trifluoromethyl)phenoxy)phenyl)amino)quinazolin-6-yl)ethyl)-3-hydroxy-3-methylbutanamide], for which the “more potency against EGFR T790M than the two control molecules erlotinib and gefitinib” value in assay [1] was “at least 30 fold”. For the same compound, the figures for the IC50 (in the assay on A431 (wild-type) cells; in assay [2]; with MCF-7 cells) were 41 nM, 127 nM and 94 nM, respectively. As to `CCN1CCN(Cc2ccc(-c3cc4c(N[C@H](C)c5ccccc5)ncnc4[nH]3)cc2)CC1` [AEE], the IC50 in the assay on EGFR (PDB 2J6M, reference or ChEMBL geometric mean) was 10.9 nM.

In the case of `C#Cc1cccc(Nc2ncnc3cc(OCCOC)c(OCCOC)cc23)c1` [Erlotinib, erlotinib], the IC50 is 62 nM in the assay with A431 (wild-type) cells and above 1000 nM with MCF-7 cells. As for `CS(=O)(=O)CCNCc1ccc(-c2ccc3ncnc(Nc4ccc(OCc5cccc(F)c5)c(Cl)c4)c3c2)o1` [FMM, lapatinib], the IC50 with EGFR is […]; in the assay on HER4, […]. Turning to `COc1cc2ncnc(Nc3ccc(F)c(Cl)c3)c2cc1OCCCN1CCOCC1` [IRE], in the assay with EGFR (PDB 2ITY, reference or ChEMBL geometric mean), the IC50 was 53.5 nM. As for `CN(C)CCC(=O)Nc1cccc(-c2c(-c3ccccc3)oc3ncnc(N[C@H](CO)c4ccccc4)c23)c1` [KJ8], in the assay on EGFR (PDB 4JQ8, reference or ChEMBL geometric mean), the IC50 was 8 nM. With `OC[C@@H](Nc1ncnc2oc(-c3ccccc3)c(-c3ccccc3)c12)c1ccccc1` [KJQ], in the assay on EGFR (PDB 4JQ7, reference or ChEMBL geometric mean), the IC50 is 393 nM.

Take `CN(C)CCCC(=O)Nc1cccc(-c2c(-c3ccccc3)oc3ncnc(N[C@H](CO)c4ccccc4)c23)c1` [KJV]: the IC50 in the assay on EGFR (PDB 4JRV, reference or ChEMBL geometric mean) is 29 nM.
